# Key:
# [1] = tested on: blowfly larvae (Lucilia cuprina); experiment: Blowfly larval bioassay; type: in vivo; conditions: for Blowfly bioassay, pupation, IC50: L. cuprina LS strain, number of pupae on Day 9 vs controls, 2 experiments; for Insecticidal activity in the blowfly bioassay (in words): blowfly larval bioassay; for Pupation IC50 relative to larval weight gain IC50: ratio of the two bioassay IC50 values
# [2] = tested on: HDAC activity of nuclear extracts from blowfly eggs; experiment: Fluorometric HDAC enzyme assay with nuclear extracts from blowfly eggs; type: biochemical, Lucilia cuprina; conditions: blowfly egg nuclear extract IC50 comparison
# [3] = larval bioassay IC50 comparison
SMILES,"Blowfly bioassay, pupation, IC50 [1] [μg/assay]",further results
CCCCc1nc2cc(/C=C/C(=O)NO)ccc2n1CCN(CC)CC [Pracinostat],>1000,–
"C=C1C(=O)O[C@H]2[C@H]1CC/C(C)=C/CC[C@@]1(C)O[C@@H]21 [Parthenolide, parthenolide]",>1000,Insecticidal activity in the blowfly bioassay (in words) [1]: no insecticidal activity
"CCCCN(Cc1ccc(C(=O)NO)cc1)C(=O)Nc1ccccc1 [Nexturostat, Nexturastat A]",>1000,–
CCCC(=O)OCOC(=O)C(C)(C)C [AN-9],>1000,–
C#Cc1cccc(Nc2ncnc3cc(OC)c(OCCCCCCC(=O)NO)cc23)c1 [CUDC-101],>1000,–
Nc1ccccc1NC(=O)c1ccc(CNC(=O)OCc2cccnc2)cc1 [Entinostat],640,–
COc1ccc(-c2nc(N3CCOCC3)c3sc(CN(C)c4ncc(C(=O)NO)cn4)cc3n2)cn1 [CUDC-907],13.8,"Potency against blowfly larval growth relative to cyromazine (fold less potent) [1, 3]: approximately 10 fold; Pupation IC50 relative to larval weight gain IC50 [1]: approximately equal"
Cn1cc(CNCC2CCN(c3ncc(C(=O)NO)cn3)CC2)c2ccccc21 [Quisinostat],274,–
Nc1nc(N)nc(NC2CC2)n1 [Cyromazine],1.54,–
CCC(=O)CCCCC[C@@H]1NC(=O)[C@H]2CCCCN2C(=O)[C@H]([C@@H](C)CC)NC(=O)[C@H](Cc2cn(OC)c3ccccc23)NC1=O [Apicidin],489,Pupation IC50 relative to larval weight gain IC50 [1]: 6 fold
O=C(NCCSSCCNC(=O)/C(Cc1ccc(O)c(Br)c1)=N/O)/C(Cc1ccc(O)c(Br)c1)=N/O [Psammaplin A],93.4,–
CN(C)Cc1ccc(S(=O)(=O)n2ccc(/C=C/C(=O)NO)c2)cc1 [Resminostat],>1000,–
CC(/C=C/C(=O)NO)=C\[C@@H](C)C(=O)c1ccc(N(C)C)cc1 [Trichostatin],20.6,"Potency against blowfly larval growth relative to cyromazine (fold less potent) [1, 3]: approximately 10 fold; Pupation IC50 relative to larval weight gain IC50 [1]: ≤ 2 fold"
O=C(CCCCCCC(=O)Nc1ccc([C@H]2O[C@@H](CSc3nc(-c4ccccc4)c(-c4ccccc4)o3)C[C@@H](c3ccc(CO)cc3)O2)cc1)NO [Tubacin],>1000,Insecticidal activity in the blowfly bioassay (in words) [1]: inactive
O=C(/C=C/c1cccc(S(=O)(=O)Nc2ccccc2)c1)NO [Belinostat],>1000,–
N#Cc1c(N)nc(NC2CC2)nc1N [Dicyclanil],0.0634,–
C/C=C1\NC(=O)[C@H]2CSSCC/C=C/[C@H](CC(=O)N[C@H](C(C)C)C(=O)N2)OC(=O)[C@H](C(C)C)NC1=O [Romidepsin],0.196,"Potency against blowfly larval growth relative to cyromazine (fold more potent) [1, 3]: 10 fold; Potency against blowfly larval growth relative to dicyclanil ([1]; larval bioassay IC50 comparison, in words): equipotent; Pupation IC50 relative to larval weight gain IC50 [1]: ≤ 2 fold; Potency in nuclear extract HDAC assay relative to quisinostat (fold more potent) [2]: approximately 600 fold"
CN1CCc2c(c3ccccc3n2Cc2ccc(C(=O)NO)cc2)C1 [Tubastatin A],>1000,Insecticidal activity in the blowfly bioassay (in words) [1]: inactive
Cc1[nH]c2ccccc2c1CCNCc1ccc(/C=C/C(=O)NO)cc1 [Panobinostat],393,–
O=C(NC(=O)c1c(F)cccc1F)Nc1ccc(Cl)cc1 [Diflubenzuron],0.119,–
Nc1ccccc1NC(=O)c1ccc(CNc2nccc(-c3cccnc3)n2)cc1 [Mocetinostat],>1000,–
CCCC(CCC)C(=O)O [Valproic acid],>1000,–
CCN(CC)Cc1ccc2cc(COC(=O)Nc3ccc(C(=O)NO)cc3)ccc2c1 [Givinostat],>1000,–
